According to patent publication US12016876B2, “Micro-RNAs and compositions comprising same for the treatment and diagnosis of serotonin-, adrenalin-, noradrenalin-, glutamate-, and corticotropin-releasing hormone- associated medical conditions” (Yeda Research and Development Co. Ltd., priority 2011, dated 2024):

Tests used:
mice [1] = assay: Forced swim test; format: in vivo
Description: The […] was performed as previously described [Krishnan V and Nestler E J, Nature (2008) 455: 894-902]. In short, the apparatus used was a plastic bucket, 18 cm of diameter, filled with 25° C. water to a depth of 15 cm. Each mouse was placed in the center of the bucket to initiate a 6 minutes video recorded test session. The duration of time spent immobile during the 2-6 minute of testing was automatically scored using Eto Vision XT (Noldus, Wageningen, Netherlands).

mice [2] = assay: Tail suspension test; format: in vivo
Description: The tail suspension test was performed in the TSE Tail Suspension Monitor (TSE Systems, Bad Homburg, Germany). Each mouse was taped by the tip of its tail, and suspended from the force sensor for 10 minutes. Time spent immobile and time spent struggling were calculated and recorded by the software based on pre-set thresholds.

miR-135a = miR-135a levels after antidepressant treatment, real time PCR; conditions: for miR-135a levels in the RN: acute or chronic administration, 20 mg/kg i.p.
miR-135b [3] = assay: miR-135b levels after antidepressant treatment, real time PCR; conditions: for miR-135b levels in the RN: acute or chronic administration, 20 mg/kg i.p.
miR-19b = miR-19b levels in PFC after Reboxetine; format: in vivo, mice
Description: (§1) Mice received i.p. injection of tricyclic-Imipramine, or SSRI-Fluoxetine, or NRI-Reboxetine (20 mg/kg in saline) or saline.
(§2) These animals will be also tested for anxiety like behavior, locomotor activity and memory performance. Furthermore, the levels of expression of miR-19a and miR-19b are examined in different regions of interest (E.G the hippocampus, amygdala and forebrain) following an acute and chronic systemic treatment with the Noradrenaline reuptake inhibitor Reboxetine in WT mice.

miR-19a = miR-19a levels in PFC after Reboxetine; format: in vivo, mice
Description: as §1, §2

Slc6a4 3′UTR = assay: Luciferase reporter assay, Slc6a4 3′UTR, HEK293T cells; format: cell-based, mouse; conditions: for repression of Slc6a4 3′UTR luciferase reporter: miR over-expressing vector vs empty vector, HEK293T; for repression with Slc6a4 3′UTR mutated in miR-135 seed match: mutated 3′UTR lacking miR-135 seed match
Source text: (§3) 3′UTR sequences of Slc6a4, Htr1a, MaoA and Tph2 were PCR amplified from mouse genomic DNA, or total brain cDNA. 3′UTR PCR fragments were ligated into pGEM-T easy vector (Promega) according to the manufacturer's guidelines, and further subcloned into a single NotI site at the 3′ end of luciferase in the Psicheck2 reporter plasmid (Promega). Mutated 3′ UTR sequences, lacking miR-135 seed sequences, were synthesized with primers overhangs across the seed match sequence. Cloning orientation was verified by diagnostic cuts and by sequencing.
(§4) HEK293T cells were grown on poly-L-lysine in 48-well format to a 70-85% confluence and transfected using Polyethyleneimine with the following plasmids: 5 ng of Psicheck2-3′UTR plasmid and 215 ng of over-expressing vector for a specific miRNA, or empty-miR-vec over-expression plasmids. 24 hours following transfection cells were lysed and luciferase reporters activity were assayed as previously described [Chen A. et al. Mol Endocrinol (2005) 19: 441-58]. Renilla luciferase values were normalized to control firefly luciferase levels (transcribed from the same vector but not affected by 3′UTR tested) and averaged across six well repetitions per condition.

Htr1a 3′UTR = assay: Luciferase reporter assay, Htr1a 3′UTR, HEK293T cells; format: cell-based, mouse; conditions: for seed matches through which Htr1a 3′UTR is repressed: Htr1a miR-135 seed matches mutated individually or both; for repression of Htr1a 3′UTR luciferase reporter: miR over-expressing vector vs empty vector, HEK293T
Source text: as §3, §4
3′UTR sequence of Htr1a was PCR amplified from mouse genomic DNA. 3′UTR PCR fragments were ligated into pGEM-T easy vector (Promega) according to the manufacturer's guidelines, and further subcloned into a single NotI site at the 3′ end of luciferase in the Psicheck2 reporter plasmid (Promega). Cloning orientation was verified by diagnostic cuts and by sequencing.
as §4, with “plasmids:” for “plasmids: 5 ng of”, “Psicheck2-3′UTR plasmid, pre-mmu-miR-182 over-expression in pEGFP” for “Psicheck2-3′UTR”, “plasmid” for “plasmid and 215 ng of over-expressing vector for a specific miRNA,”, “pEGFP plasmid alone (clontech).” for “empty-miR-vec over-expression plasmids.”

miR-135b [4] = assay: Lentiviral over-expression of miR-135b in RN, real time PCR; conditions: lentiviruses over-expressing miR-135b injected into RN, vs control lentiviruses
mice [5] = assay: Home cage locomotor activity; format: in vivo; conditions: lentiviral miR-135b over-expression in RN
Description: To control for the possibility of behavioral effects originating from differences in ambulatory movement, locomotor activity of mice was examined over a 48 hours period, which proceeded a few days of habituation. Mice were single housed in specialized home cages and locomotion was measured using the InfraMot system (TSE Systems, Bad Hamburg, Germany).

L1cam 3′UTR = assay: Luciferase assay, L1cam 3′UTR, N2a cells; format: cell-based
Description: (§5) Using a luciferase assay, eleven predicted target genes of miR182, chosen after extensive bioinformatics, were examined (FIG. 27A).
(§6) Similar verification for Dscam and Htr1a with mutated 3′UTR are performed.

Dscam 3′UTR = assay: Luciferase assay, Dscam 3′UTR, N2a cells; format: cell-based
Source text: as §5

miR-182 = miR-182 over-expression lentiviruses in N2a cell line, real time PCR; conditions: N2a cells infected with over-expression lentiviruses vs control
Tsnax 3′UTR = assay: Luciferase assay, Tsnax 3′UTR, N2a cells; format: cell-based
Description: as §5, §6

[6] = acute and chronic administration
[7] = chronic administration (18 days)

CNCCC(Oc1ccc(C(F)(F)F)cc1)c1ccccc1 (stereo not drawn) [Fluoxetine]
immobility time, forced swim test (mice [1]; SSRI treatment, miR135KD and control KD mice): reduced
immobility time, tail suspension test (mice [2]; SSRI treatment vs basal, miR135KD and control KD mice): decrease in immobility time
miR135a levels in the AMY (miR-135a; acute administration): upregulated
miR135a levels in the PFC (miR-135a; acute administration): not significantly altered
circulating miR-135a levels in plasma (miR-135a; [6]): robust decrease
miR-135a levels in the RN (miR-135a): robust increase
miR135a levels in the AMY (miR-135a; chronic administration): not by chronic administration
miR135a levels in the PFC (miR-135a; chronic administration): decreased
miR135b levels in the AMY (miR-135b [3]; acute administration): upregulated
miR135b levels in the PFC (miR-135b [3]; acute administration): upregulated
circulating miR-135b levels in plasma (miR-135b [3]; [6]): no effect
miR-135b levels in the RN (miR-135b [3]): unaltered
miR135b levels in the AMY (miR-135b [3]; chronic administration): not by chronic administration
miR135b levels in the PFC (miR-135b [3]; chronic administration): decreased

CN(C)CCCN1c2ccccc2CCc2ccccc21 [Imipramine]
miR-135a levels in the RN (miR-135a): increased
miR-135b levels in the RN (miR-135b [3]): increased

CCOc1ccccc1OC(c1ccccc1)C1CNCCO1 (stereo not drawn) [Reboxetine]
miR135a levels in the AMY (miR-135a; acute administration): upregulated
miR135a levels in the PFC (miR-135a; acute administration): not significantly altered
miR-135a levels in the RN (miR-135a): not
miR135a levels in the AMY (miR-135a; chronic administration): not by chronic administration
miR-19b levels in the PFC (miR-19b; acute administration (once)): down regulated
miR-19b levels in the PFC (miR-19b; [7]): upregulated
miR-19a levels in the PFC (miR-19a; acute administration (once)): down regulated
miR-19a levels in the PFC (miR-19a; [7]): upregulated
miR135b levels in the AMY (miR-135b [3]; acute administration): upregulated
miR135b levels in the PFC (miR-135b [3]; acute administration): upregulated
miR-135b levels in the RN (miR-135b [3]): unaltered
miR135b levels in the AMY (miR-135b [3]; chronic administration): not by chronic administration

miR-135a: microRNA over-expressed from a vector; SEQ ID NO: 24 (AGUGUAUCCUUAUUUUUCGGUAU; listed as Mus musculus)
repression of Slc6a4 3′UTR luciferase reporter (Slc6a4 3′UTR): approximately 30%
repression with Slc6a4 3′UTR mutated in miR-135 seed match (Slc6a4 3′UTR): fully blocked
seed matches through which Htr1a 3′UTR is repressed (Htr1a 3′UTR): via the distal and not the proximal seed match
repression of Htr1a 3′UTR luciferase reporter (Htr1a 3′UTR): approximately 30%

miR-135b: microRNA over-expressed from plasmid or neuron-specific lentivirus (pre-miR-135b); SEQ ID NO: 26 (AGUGUAUCCUUACUUUUCGGUAU; listed as Mus musculus)
repression of Slc6a4 3′UTR luciferase reporter (Slc6a4 3′UTR): approximately 50%
repression with Slc6a4 3′UTR mutated in miR-135 seed match (Slc6a4 3′UTR): fully blocked
immobility time, forced swim test (mice [1]; lentiviral miR-135b over-expression in RN, after chronic social defeat): reduced immobility time
immobility time, tail suspension test (mice [2]; lentiviral miR-135b over-expression in RN, after chronic social defeat, last 5 min): reduced immobility time
seed matches through which Htr1a 3′UTR is repressed (Htr1a 3′UTR): via both predicted sites
repression of Htr1a 3′UTR luciferase reporter (Htr1a 3′UTR): approximately 50%
induction of miR-135b levels in RN (miR-135b [4]): 10 fold
home cage locomotion (mice [5]): without any observed change

B1: miR-335: microRNA over-expressed from a vector (nucleic acid, listed as Homo sapiens)
chain 1: UGUUUUGAGCGGGGGUCAAGAGCAAUAACGAAAAAUGUUUGUCAUAAACCGUUUUUCAUUAUUGCUCCUGACCUCCUCUCAUUUGCUAUAUUCA
chain 2: UCAAGAGCAAUAACGAAAAAUGU
repression of Htr1a 3′UTR luciferase reporter (Htr1a 3′UTR): significant repression

B2: miR-182: pre-mmu-miR-182 over-expression in pEGFP plasmid or lentiviruses (nucleic acid, listed as Homo sapiens)
chain 1: GAGCUGCUUGCCUCCCCCCGUUUUUGGCAAUGGUAGAACUCACACUGGUGAGGUAACAGGAUCCGGUGGUUCUAGACUUGCCAACUAUGGGGCGAGGACUCAGCCGGCAC
chain 2: UUUGGCAAUGGUAGAACUCACACCG
repression of Htr1a 3′UTR luciferase reporter (Htr1a 3′UTR): strong repression
effect on L1cam 3′UTR luciferase (L1cam 3′UTR; N2a cells): represoric effect
effect on L1cam 3′UTR with mutated seed match (L1cam 3′UTR; mutated 3′UTR): abolished
effect on Dscam 3′UTR luciferase (Dscam 3′UTR): represoric effect
miR-182 levels in infected cells (miR-182): increased miR-182 levels
effect on Tsnax 3′UTR luciferase (Tsnax 3′UTR; N2a cells): represoric effect
effect on Tsnax 3′UTR with mutated seed match (Tsnax 3′UTR; mutated 3′UTR): abolished
